Measured values: ChEMBL document CHEMBL4680208, “Sulfone derivatives enter the cytoplasm of Candida albicans sessile cells” (Eur J Med Chem, 2020)
≈ marks a conversion by molar mass, not a printed value. Calls of active or inactive are those of the source. The rule behind the calls is not given here.

Tests used:
[1] = system: Candida albicans; experiment: Antifungal activity against Candida albicans 90028 assessed as fungal growth inhibition measured after 48 hrs by microdilution method; type: functional
[2] = system: Vero; experiment: Cytotoxicity against African green monkey Vero cells at 0.25 to 512 ug/ml by XTT assay relative to control; type: cell-based; conditions: chlorocebus sabaeus, at 0.25 to 512 µg/mL, dose 0.25-512 µg/ml
[3] = system: Candida albicans; experiment: Antibiofilm activity against Candida albicans 90028 assessed as cell killing at 256 ug/ml by XTT assay relative to control; type: functional; conditions: dose 256 µg/ml
[4] = system: Candida albicans; experiment: Antifungal activity against Candida albicans 90028 assessed as fungal growth inhibition at 0.0625 ug/ml measured after 18 hrs by microdilution method relative to control; type: functional; conditions: read-out: GI
[5] = system: Candida albicans; experiment: Antifungal activity against Candida albicans 90028 assessed as fungal growth inhibition at 0.125 ug/ml measured after 48 hrs by microdilution method relative to control; type: functional; conditions: read-out: GI
[6] = system: Candida albicans; experiment: Antifungal activity against Candida albicans 90028 assessed as fungal growth inhibition at 4 ug/ml measured after 48 hrs by microdilution method relative to control; type: functional; conditions: read-out: GI
[7] = system: Candida albicans; experiment: Antifungal activity against Candida albicans 90028 assessed as fungal growth inhibition at 8 ug/ml measured after 48 hrs by microdilution method relative to control; type: functional; conditions: read-out: GI
[8] = system: Candida albicans; experiment: Antifungal activity against Candida albicans 90028 assessed as fungal growth inhibition at 0.0313 ug/ml measured after 18 hrs by microdilution method relative to control; type: functional; conditions: read-out: GI
[9] = system: Candida albicans; experiment: Antifungal activity against Candida albicans 90028 infected in Galleria mellonella larvae at 16 ug/ml by H and E staining based histological analysis; type: functional, organism-based; conditions: dose 16.0 µg/ml
[10] = system: Candida albicans; experiment: Antifungal activity against Candida albicans 90028 assessed as fungal growth inhibition at 0.25 ug/ml measured after 48 hrs by microdilution method relative to control; type: functional; conditions: read-out: GI
[11] = Toxicity in Galleria mellonella larvae assessed as survival at 16 ug/ml relative to control; conditions: at 16 µg/mL
[12] = system: Candida albicans; experiment: Antifungal activity against Candida albicans 90028 assessed as fungal growth inhibition at 0.5 ug/ml measured after 48 hrs by microdilution method relative to control; type: functional; conditions: read-out: GI
[13] = system: Candida albicans; experiment: Antibiofilm activity against Candida albicans 90028 assessed as increasing in cell killing by XTT assay; type: functional
[14] = Cytotoxicity against human MRC5 cells by CellTiter 96 Aqueous One Solution Reagent based assay; type: cell-based
[15] = system: Candida albicans; experiment: Induction of plasma membrane disruption in Candida albicans assessed as accidental type cell death at 0.25 ug/ml measured after 18 hrs by Annexin V-FITC/propidium iodide staining based flow cytometry (reference value: 1.74 +/- 1.37%); conditions: dose 0.25 µg/ml
[16] = system: Candida albicans; experiment: Antifungal activity against Candida albicans 90028 assessed as fungal growth inhibition at 2 ug/ml measured after 18 hrs by microdilution method relative to control; type: functional; conditions: read-out: GI
[17] = system: Candida albicans; experiment: Antifungal activity against Candida albicans 90028 assessed as fungal growth inhibition at 0.125 ug/ml measured after 18 hrs by microdilution method relative to control; type: functional; conditions: read-out: GI
[18] = system: Candida albicans; experiment: Anti-adhesive activity against Candida albicans assessed as reduction in […] adhesion to human TR146 cells at 0.25 ug/ml incubated for 2 hrs prior to cell infection and measured after 2 hrs by colony counting method relative to control; type: functional; parameters: scale not given: the % may be the effect or the level left; conditions: dose 0.25 µg/ml; time 4 hrs
[19] = system: Candida albicans; experiment: Antifungal activity against Candida albicans 90028 assessed as fungal growth inhibition at 0.0625 ug/ml measured after 48 hrs by microdilution method relative to control; type: functional; conditions: read-out: GI
[20] = Induction of adhesive activity against Candida albicans assessed as increase in […] adhesion to human TR146 cells at 0.125 ug/ml incubated for 2 hrs prior to cell infection and measured after 2 hrs by colony counting method relative to control; type: cell-based; conditions: tr146, 2 h, dose 0.125 µg/ml
[21] = system: Candida albicans; experiment: Antifungal activity against Candida albicans 90028 assessed as fungal growth inhibition at 16 ug/ml measured after 48 hrs by microdilution method relative to control; type: functional; conditions: read-out: GI
[22] = system: Candida albicans; experiment: Antifungal activity against Candida albicans 90028 assessed as fungal growth inhibition at 0.0313 ug/ml measured after 48 hrs by microdilution method relative to control; type: functional; conditions: read-out: GI
[23] = system: Candida albicans; experiment: Antifungal activity against Candida albicans 90028 assessed as fungal growth inhibition at 8 ug/ml measured after 18 hrs by microdilution method relative to control; type: functional; conditions: read-out: GI
[24] = system: Candida albicans; experiment: Antifungal activity against Candida albicans 90028 assessed as fungal growth inhibition at 0.5 ug/ml measured after 18 hrs by microdilution method relative to control; type: functional; conditions: read-out: GI
[25] = system: Candida albicans; experiment: Antifungal activity against Candida albicans 90028 assessed as fungal growth inhibition at 0.25 ug/ml measured after 18 hrs by microdilution method relative to control; type: functional; conditions: read-out: GI
[26] = system: Candida albicans; experiment: Fungicidal activity against Candida albicans 90028 preincubated for 48 hrs followed by plating on SD agar and measured after 48 hrs; type: functional; conditions: time 96 hrs
[27] = system: Candida albicans; experiment: Antifungal activity against Candida albicans 90028 assessed as fungal growth inhibition at 2 ug/ml measured after 48 hrs by microdilution method relative to control; type: functional; conditions: read-out: GI
[28] = system: Candida albicans; experiment: Antifungal activity against Candida albicans 90028 assessed as fungal growth inhibition at 1 ug/ml measured after 48 hrs by microdilution method relative to control; type: functional; conditions: read-out: GI
[29] = system: Candida albicans; experiment: Antifungal activity against Candida albicans 90028 assessed as fungal growth inhibition at 1 ug/ml measured after 18 hrs by microdilution method relative to control; type: functional; conditions: read-out: GI
[30] = system: Candida albicans; experiment: Antifungal activity against Candida albicans 90028 assessed as fungal growth inhibition at 16 ug/ml measured after 18 hrs by microdilution method relative to control; type: functional; conditions: read-out: GI
[31] = system: Candida albicans; experiment: Antifungal activity against Candida albicans 90028 assessed as fungal growth inhibition at 4 ug/ml measured after 18 hrs by microdilution method relative to control; type: functional; conditions: read-out: GI
[32] = Cytotoxicity against human TR146 cells assessed as induction of lysosomal membrane permeabilization at 16 ug/ml measured after 18 hrs by AO/propidium iodide staining based confocal laser scanning microscopy; type: cell-based; conditions: tr146, 18 h, dose 16 µg/ml
[33] = system: Candida albicans; experiment: Induction of plasma membrane disruption in Candida albicans assessed as accidental type cell death at 4 ug/ml measured after 18 hrs by Annexin V-FITC/propidium iodide staining based flow cytometry (reference value: 1.74 +/- 1.37%); conditions: dose 4.0 µg/ml
[34] = system: Candida albicans; experiment: Antifungal activity against Candida albicans 90028 infected in Galleria mellonella larvae assessed as increase in larvae survival at MFC measured 96 hrs post-infection relative to control; type: functional
[35] = Induction of adhesive activity against Candida albicans assessed as increase in […] adhesion to human TR146 cells at 2 ug/ml incubated for 2 hrs prior to cell infection and measured after 2 hrs by colony counting method relative to control; type: cell-based; conditions: tr146, 4 h, dose 2 µg/ml
[36] = system: Vero; experiment: Cytotoxicity against African green monkey Vero cells at 0.25 to 8 ug/ml after 18 hrs by XTT assay relative to control; type: cell-based; conditions: chlorocebus sabaeus, at 0.25 to 8 µg/mL, dose 0.25-8 µg/ml
[37] = system: Candida albicans; experiment: Antibiofilm activity against Candida albicans 90028 assessed as cell killing at 128 ug/ml by XTT assay relative to control; type: functional; conditions: dose 128 µg/ml
[38] = Cytotoxicity against African green monkey Vero cells by XTT assay; type: cell-based; conditions: chlorocebus sabaeus
[39] = system: Candida albicans; experiment: Anti-adhesive activity against Candida albicans assessed as reduction in […] adhesion to human TR146 cells at 4 ug/ml incubated for 2 hrs prior to cell infection and measured after 2 hrs by colony counting method relative to control; type: functional; parameters: scale not given: the % may be the effect or the level left; conditions: dose 4 µg/ml; time 4 hrs
[40] = system: Candida albicans; experiment: Induction of morphological changes in Candida albicans biofilm infected in human TR146 cells at 16 ug/ml measured after 20 hrs by fluorescence microscopy based QCM-D analysis; type: functional, organism-based; conditions: dose 16.0 µg/ml
[41] = system: Candida albicans; experiment: Antifungal activity against Candida albicans 90028 infected in Galleria mellonella larvae at 4 ug/ml by H and E staining based histological analysis; type: functional, organism-based; conditions: dose 4.0 µg/ml

For NNc1ccc(S(=O)(=O)C(F)(F)Cl)cc1[N+](=O)[O-], the MIC [1] was “inactive”, the Activity [2] was 93.43% and the Activity [3] was 40%. The inhibition of growth at 0.0625 µg/mL [4] was 97.6%, the inhibition of growth at 0.125 µg/mL [5] was 98.1% and the inhibition of growth at 4 µg/mL [6] was 100%. The inhibition of growth at 8 µg/mL [7] was 100%, the inhibition of growth at 0.0313 µg/mL [8] was 93.8% and the Activity [9] was “inactive”. For the same molecule, the inhibition of growth at 0.25 µg/mL [10] was 98.4%, the survival [11] was 93% and the inhibition of growth at 0.5 µg/mL [12] was 98.9%. The CC50 [13] was no more than 128 µg/mL, the CC50 [14] was no less than 16 µg/mL and the Activity [15] was 83.1%. The inhibition of growth at 2 µg/mL [16] was 100%, the inhibition of growth at 0.125 µg/mL [17] was 98.4% and the Activity [18] was 5.88%. For the same molecule, the inhibition of growth at 0.0625 µg/mL [19] was 95.8%, the “fold change (FC)” value [20] was 11.76 and the inhibition of growth at 16 µg/mL [21] was 100%. The inhibition of growth at 0.0313 µg/mL [22] was 94.2%, the inhibition of growth at 8 µg/mL [23] was 100% and the inhibition of growth at 0.5 µg/mL [24] was 99.9%. It also gave an inhibition of growth at 0.25 µg/mL [25] of 98.8%, an MFC [26] of 0.25 µg/mL (≈ 0.829 µM) and an inhibition of growth at 2 µg/mL [27] of 99.7%. For the same molecule, the inhibition of growth at 1 µg/mL [28] was 98.2%, the inhibition of growth at 1 µg/mL [29] was 99.9% and the inhibition of growth at 16 µg/mL [30] was 100%. It also gave an inhibition of growth at 4 µg/mL [31] of 100%.

In the case of NNc1ccc(S(=O)(=O)C(Cl)(Cl)Br)cc1[N+](=O)[O-], the MIC90 [1] is reported as 2 µg/mL (≈ 5.28 µM), the Activity [32] is reported as “Non-Toxic” and the inhibition of growth at 0.0625 µg/mL [4] is reported as 99.4%. It also gave an inhibition of growth at 0.125 µg/mL [5] of 98.9%, an inhibition of growth at 4 µg/mL [6] of 100% and an Activity [33] of 79%. The Activity [34] was 63.57%, the inhibition of growth at 8 µg/mL [7] was 100% and the inhibition of growth at 0.0313 µg/mL [8] was 99.7%. For the same molecule, the inhibition of growth at 0.25 µg/mL [10] was 98.9%, the survival [11] was 93% and the inhibition of growth at 0.5 µg/mL [12] was 99.2%. For the same molecule, the CC50 [13] was no more than 128 µg/mL, the CC50 [14] was no less than 16 µg/mL and the “fold change (FC)” value [35] was 1.03. It also gave an inhibition of growth at 2 µg/mL [16] of 100%, an inhibition of growth at 0.125 µg/mL [17] of 99.2% and an inhibition of growth at 0.0625 µg/mL [19] of 98.9%. It also gave an Activity [36] of 43.12%, an Activity [37] of 40% and a CC50 [38] of no less than 8 µg/mL. It also gave an inhibition of growth at 16 µg/mL [21] of 100%, an inhibition of growth at 0.0313 µg/mL [22] of 98.7% and an inhibition of growth at 8 µg/mL [23] of 99.9%. For the same molecule, the inhibition of growth at 0.5 µg/mL [24] was 99.7%, the inhibition of growth at 0.25 µg/mL [25] was 98.9% and the MFC [26] was 4 µg/mL (≈ 10.6 µM). It also gave an Activity [39] of 100%, an inhibition of growth at 2 µg/mL [27] of 99.9% and an inhibition of growth at 1 µg/mL [28] of 99.2%. For the same molecule, the inhibition of growth at 1 µg/mL [29] was 99.8%, the inhibition of growth at 16 µg/mL [30] was 99.9% and the Activity [40] was “Active”. For the same molecule, the Activity [41] was “Active” and the inhibition of growth at 4 µg/mL [31] was 99.7%.
